Test results published in US20240150715A1 (Sciperio, Inc, priority 2022, published 2024).

How the values were obtained:
Format in all cases: cell-based
[1] = system: differentiating hematopoietic stem cells (HSCs); experiment: High-density differentiation of HSCs into RBCs: culture density / proliferation; conditions: ferric citrate compared with transferrin, FIG. 5A
From the text: (B) Secretion of cellular waste compounds ammonia and lactate is equivalent between ferric citrate and transferrin, indicating similar metabolic rates. (C) Rates of lytic cell death are similar between cultures treated with ferric citrate and transferrin, as is indicated by the release of lactate dehydrogenase (LDH). (D) Amino acid consumption is similar between the two conditions, as is represented by the consumption of alanine and other amino acids.
The medium formulation has specifically been designed for the efficient, high density, in vitro manufacture of RBCs from HSCs in bioreactors. It is formulated to optimally supply certain growth factors at elevated concentrations for rapid HSC expansion and mediated erythropoiesis using a bioreactor (FIG. 1). The formulation has been determined experimentally using the average depletion rates of various factors by differentiating HSCs in high-density culture (FIG. 2), and can be employed in the production of manufactured RBCs both in static culture (e.g. culture flasks) and in continually agitated suspension culture (e.g. bioreactors).
The present inventors have experimentally determined that a concentration range between 1 μg/mL and 500 μg/mL is effective in driving directed HSC differentiation through the stages of erythropoiesis in a manner that is equivalent to that of holo-transferrin (FIG. 4).

[2] = system: RBCs differentiated from HSCs; experiment: Enucleation, maturation and morphology of manufactured RBCs (DRAQ5-, CD235a+; leukofiltration; Leishman stain); conditions: for concentration of enucleated cells after leukofiltration: FIG. 6B
From the text: FIG. 6 illustrates ferric citrate-treated RBCs enucleate at rates similar to transferrin-treated RBCs.

[3] = system: differentiating HSCs in high density culture; experiment: Analysis of culture medium: metabolic waste, LDH release, amino acid consumption; conditions: ferric citrate compared with transferrin

Compound	effect on HSC density and cumulative population doubling [1]	cell morphology ([2]; Leishman stain, ferric citrate compared with transferrin, FIG. 6C)	concentration of enucleated cells after leukofiltration [2]	difference in overall enucleation ([2]; ferric citrate versus transferrin, after differentiation in optimized medium, FIG. 6A)	secretion of cellular waste compounds ammonia and lactate ([3]; FIG. 5B)	amino acid consumption (alanine and other amino acids) ([3]; FIG. 5D)
O=C([O-])CC(O)(CC(=O)[O-])C(=O)[O-].[Fe+3] [ferric citrate, iron (III) citrate]	comparable	morphologically similar	74.8%	~4%	equivalent	similar
transferrin: iron-loaded protein holo-transferrin, traditional iron source in HSC culture media			79%			
